Measurements published in ChEMBL document CHEMBL4265897, “Discovery of benzothiazole amides as potent antimycobacterial agents” (Bioorg Med Chem Lett, 2018).
Converted amounts (≈) assume the structure as drawn.

Tests used:
[1] = tested on: Mycobacteroides abscessus; assay: Antimycobacterial activity against Mycobacterium abscessus 103 by CLSI method; assay type: functional
[2] = tested on: Mycolicibacterium fortuitum; assay: Antimycobacterial activity against Mycobacterium fortuitum 41 by CLSI method; assay type: functional
[3] = tested on: Mycolicibacterium peregrinum; assay: Antimycobacterial activity against Mycobacterium peregrinum ATCC 700686 by CLSI method; assay type: functional
[4] = tested on: Mycobacterium intracellulare; assay: Antimycobacterial activity against Mycobacterium intracellulare 1956 by CLSI method; assay type: functional
[5] = tested on: Mycobacteroides abscessus; assay: Antimycobacterial activity against Mycobacterium abscessus 1 by CLSI method; assay type: functional
[6] = tested on: Mycobacteroides abscessus; assay: Antimycobacterial activity against Mycobacterium abscessus 21 by CLSI method; assay type: functional
[7] = tested on: Mycobacteroides abscessus; assay: Antimycobacterial activity against Mycobacterium abscessus 79 by CLSI method; assay type: functional
Mycobacterium avium = assay: Antimycobacterial activity against Mycobacterium avium 101 by CLSI method; assay type: functional
Mycobacteroides chelonae = assay: Antimycobacterial activity against Mycobacterium chelonae 93 by CLSI method; assay type: functional
[8] = tested on: Mycobacteroides abscessus; assay: Antimycobacterial activity against Mycobacterium massiliense 119 by CLSI method; assay type: functional, Mycobacterium abscessus subsp. massiliense
Mus musculus = assay: Toxicity in mouse assessed as abnormal behavior at 100 to 300 mg/kg, po administered as single dose; assay type: organism-based; settings: in vivo
[9] = tested on: Mycobacterium tuberculosis; assay: Antimycobacterial activity against Mycobacterium tuberculosis H37Rv MC2 6206 by CLSI method; assay type: functional
[10] = tested on: Mycobacteroides abscessus; assay: Antimycobacterial activity against Mycobacterium abscessus ATCC 19977 by CLSI method; assay type: functional
[11] = Solubility of the compound; assay type: physicochemical
Cytochrome P450 2C8 = target: T1, Cytochrome P450 2C8 (Homo sapiens, UniProt P10632); assay: Inhibition of CYP2C8 (unknown origin); assay type: ADME
T1 sequence (P10632 whole entry): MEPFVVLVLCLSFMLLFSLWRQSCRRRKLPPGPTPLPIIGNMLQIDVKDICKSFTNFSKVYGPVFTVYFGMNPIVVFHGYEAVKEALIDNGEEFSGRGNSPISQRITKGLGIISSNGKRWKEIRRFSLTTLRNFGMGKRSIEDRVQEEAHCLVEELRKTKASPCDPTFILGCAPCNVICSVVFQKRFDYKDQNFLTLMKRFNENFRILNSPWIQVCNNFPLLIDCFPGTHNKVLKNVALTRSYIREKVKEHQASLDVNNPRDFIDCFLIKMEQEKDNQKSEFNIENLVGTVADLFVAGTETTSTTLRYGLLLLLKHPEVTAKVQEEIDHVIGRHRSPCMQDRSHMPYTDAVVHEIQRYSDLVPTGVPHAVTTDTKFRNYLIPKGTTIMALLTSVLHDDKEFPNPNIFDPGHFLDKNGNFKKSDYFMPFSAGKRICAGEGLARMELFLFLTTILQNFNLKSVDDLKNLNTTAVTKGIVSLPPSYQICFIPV

Cytochrome P450 3A4 [12] = target: T2, Cytochrome P450 3A4 (Homo sapiens, UniProt P08684); assay: Inhibition of CYP3A4 (unknown origin) using midazolam as substrate; assay type: ADME
T2 sequence (P08684 whole entry): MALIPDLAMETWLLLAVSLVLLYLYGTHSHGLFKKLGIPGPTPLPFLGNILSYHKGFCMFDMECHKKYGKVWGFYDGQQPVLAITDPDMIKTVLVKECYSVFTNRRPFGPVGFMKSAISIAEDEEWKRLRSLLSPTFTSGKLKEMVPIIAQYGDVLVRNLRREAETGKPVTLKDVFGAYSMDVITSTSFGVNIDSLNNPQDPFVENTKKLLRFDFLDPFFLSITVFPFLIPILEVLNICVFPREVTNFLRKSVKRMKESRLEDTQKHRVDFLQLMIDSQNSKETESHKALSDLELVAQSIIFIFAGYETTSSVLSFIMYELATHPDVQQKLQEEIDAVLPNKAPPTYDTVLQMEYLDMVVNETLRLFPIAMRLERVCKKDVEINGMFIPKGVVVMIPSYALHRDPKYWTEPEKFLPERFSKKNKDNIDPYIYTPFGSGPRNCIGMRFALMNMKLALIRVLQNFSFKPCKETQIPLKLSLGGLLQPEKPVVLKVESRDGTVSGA

Cytochrome P450 2B6 = target: T3, Cytochrome P450 2B6 (Homo sapiens, UniProt P20813); assay: Inhibition of CYP2B6 (unknown origin); assay type: ADME
T3 sequence (P20813 whole entry): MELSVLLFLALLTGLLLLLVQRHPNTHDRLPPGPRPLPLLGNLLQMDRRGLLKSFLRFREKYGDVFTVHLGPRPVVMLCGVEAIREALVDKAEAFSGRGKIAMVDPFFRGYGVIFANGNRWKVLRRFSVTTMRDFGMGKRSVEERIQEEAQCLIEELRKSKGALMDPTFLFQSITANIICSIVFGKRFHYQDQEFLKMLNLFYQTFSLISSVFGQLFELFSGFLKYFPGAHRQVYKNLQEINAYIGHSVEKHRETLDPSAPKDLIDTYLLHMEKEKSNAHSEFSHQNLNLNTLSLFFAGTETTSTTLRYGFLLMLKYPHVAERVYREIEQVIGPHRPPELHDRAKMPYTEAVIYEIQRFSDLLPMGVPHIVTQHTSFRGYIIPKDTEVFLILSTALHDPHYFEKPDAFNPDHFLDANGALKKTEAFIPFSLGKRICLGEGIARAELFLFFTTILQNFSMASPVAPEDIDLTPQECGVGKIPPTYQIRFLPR

Cytochrome P450 2C19 = Cytochrome P450 2C19 (Homo sapiens, UniProt P33261); assay: Inhibition of CYP2C19 (unknown origin); assay type: ADME
Cytochrome P450 2C19, sequence (P33261 whole entry): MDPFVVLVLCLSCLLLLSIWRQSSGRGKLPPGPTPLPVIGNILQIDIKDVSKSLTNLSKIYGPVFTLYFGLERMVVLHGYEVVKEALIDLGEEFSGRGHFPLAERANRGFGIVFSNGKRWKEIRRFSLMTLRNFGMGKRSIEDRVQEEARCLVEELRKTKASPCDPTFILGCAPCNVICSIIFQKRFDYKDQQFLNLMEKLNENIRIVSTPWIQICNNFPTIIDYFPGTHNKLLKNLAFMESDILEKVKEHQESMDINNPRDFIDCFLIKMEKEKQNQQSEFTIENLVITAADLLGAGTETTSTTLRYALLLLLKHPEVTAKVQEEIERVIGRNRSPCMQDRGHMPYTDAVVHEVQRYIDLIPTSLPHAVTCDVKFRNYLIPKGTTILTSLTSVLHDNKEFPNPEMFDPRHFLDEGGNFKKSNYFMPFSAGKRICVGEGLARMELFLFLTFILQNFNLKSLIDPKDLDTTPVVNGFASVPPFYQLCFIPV

Cytochrome P450 3A4 [13] = target: T2, Cytochrome P450 3A4; assay: Inhibition of CYP3A4 (unknown origin) using testosterone as substrate; assay type: ADME
Cytochrome P450 2C9 = Cytochrome P450 2C9 (Homo sapiens, UniProt P11712); assay: Inhibition of CYP2C9 (unknown origin); assay type: ADME
Cytochrome P450 2C9, sequence (P11712 whole entry): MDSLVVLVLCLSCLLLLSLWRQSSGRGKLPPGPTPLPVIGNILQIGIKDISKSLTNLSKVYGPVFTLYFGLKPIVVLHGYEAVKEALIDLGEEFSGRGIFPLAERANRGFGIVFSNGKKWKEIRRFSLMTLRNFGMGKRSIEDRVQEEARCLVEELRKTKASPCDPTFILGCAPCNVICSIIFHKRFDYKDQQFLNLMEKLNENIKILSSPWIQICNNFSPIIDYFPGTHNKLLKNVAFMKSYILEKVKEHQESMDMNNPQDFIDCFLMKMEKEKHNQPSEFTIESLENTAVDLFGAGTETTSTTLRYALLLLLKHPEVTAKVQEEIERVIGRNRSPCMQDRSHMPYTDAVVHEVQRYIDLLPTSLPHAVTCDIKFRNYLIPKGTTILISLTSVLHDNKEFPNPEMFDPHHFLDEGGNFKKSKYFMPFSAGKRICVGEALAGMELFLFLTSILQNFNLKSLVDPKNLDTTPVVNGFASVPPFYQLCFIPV

Cytochrome P450 2D6 = Cytochrome P450 2D6 (Homo sapiens, UniProt P10635); assay: Inhibition of CYP2D6 (unknown origin); assay type: ADME
Cytochrome P450 2D6, sequence (P10635 whole entry): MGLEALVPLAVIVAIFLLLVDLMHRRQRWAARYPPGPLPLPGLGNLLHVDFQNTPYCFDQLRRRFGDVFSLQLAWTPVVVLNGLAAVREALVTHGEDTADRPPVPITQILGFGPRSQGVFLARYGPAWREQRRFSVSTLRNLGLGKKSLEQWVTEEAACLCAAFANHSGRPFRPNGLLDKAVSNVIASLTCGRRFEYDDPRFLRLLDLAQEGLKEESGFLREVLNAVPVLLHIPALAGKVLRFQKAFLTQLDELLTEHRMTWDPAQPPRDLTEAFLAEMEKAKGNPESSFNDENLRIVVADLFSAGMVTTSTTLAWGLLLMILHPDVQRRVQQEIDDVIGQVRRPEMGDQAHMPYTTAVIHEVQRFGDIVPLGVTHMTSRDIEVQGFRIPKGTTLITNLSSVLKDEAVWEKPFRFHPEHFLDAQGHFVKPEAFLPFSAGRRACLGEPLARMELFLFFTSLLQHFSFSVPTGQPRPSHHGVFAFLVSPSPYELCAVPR

RBCs = assay: Hemolytic activity in RBC (unknown origin) at 128 ug/ml; assay type: ADME, cell-based; settings: erythrocyte
[14] = Protein binding in human serum; assay type: ADME, cell-free; settings: read-out: PB
HepG2 = assay: Cytotoxicity against human HepG2 cells; assay type: cell-based

| SMILES | MIC [1] | MIC [2] | MIC [3] | MIC [4] | MIC [5] | MIC [6] | MIC [7] | MIC (Mycobacterium avium) | MIC (Mycobacteroides chelonae) | MIC [8] | MIC [9] | MIC [10] | further results |
| --- | --- | --- | --- | --- | --- | --- | --- | --- | --- | --- | --- | --- | --- |
| CC1CC(C(=O)Nc2nc3c(F)cc(F)cc3s2)CC(C)(C)C1 (stereo not drawn) | 0.5 µg/mL (≈ 1.48 µM) | 0.25 µg/mL (≈ 0.739 µM) | 0.2 µg/mL (≈ 0.591 µM) | 4 µg/mL (≈ 11.8 µM) | 1 µg/mL (≈ 2.95 µM) | 0.5 µg/mL (≈ 1.48 µM) | 0.5 µg/mL (≈ 1.48 µM) | 64 µg/mL (≈ 189 µM) | 0.25 µg/mL (≈ 0.739 µM) | 0.5 µg/mL (≈ 1.48 µM) | – | – | Activity (Mus musculus): Non-Toxic |
| COc1ccc2nc(NC(=O)C3CC(C)CC(C)(C)C3)sc2c1 (stereo not drawn) | – | 2 µg/mL (≈ 6.02 µM) | 1 µg/mL (≈ 3.01 µM) | 8 µg/mL (≈ 24.1 µM) | 2 µg/mL (≈ 6.02 µM) | 1 µg/mL (≈ 3.01 µM) | 1 µg/mL (≈ 3.01 µM) | 16 µg/mL (≈ 48.1 µM) | 0.25 µg/mL (≈ 0.752 µM) | 0.5 µg/mL (≈ 1.5 µM) | 8 µg/mL (≈ 24.1 µM) | 1 µg/mL (≈ 3.01 µM) | – |
| CC1CC(C(=O)Nc2nc3ccc(Cl)cc3s2)CC(C)(C)C1 (stereo not drawn) | 0.25 µg/mL (≈ 0.742 µM) | 0.25 µg/mL (≈ 0.742 µM) | 0.12 µg/mL (≈ 0.356 µM) | 4 µg/mL (≈ 11.9 µM) | 0.5 µg/mL (≈ 1.48 µM) | 0.25 µg/mL (≈ 0.742 µM) | 0.25 µg/mL (≈ 0.742 µM) | 16 µg/mL (≈ 47.5 µM) | 0.25 µg/mL (≈ 0.742 µM) | 0.5 µg/mL (≈ 1.48 µM) | 4 µg/mL (≈ 11.9 µM) | – | solubility [11]: Insoluble; IC50 (Cytochrome P450 2C8): > 20 µM; IC50 (Cytochrome P450 3A4 [12]): > 20 µM; IC50 (Cytochrome P450 2B6): 14.9 µM; IC50 (Cytochrome P450 2C19): 15.5 µM; IC50 (Cytochrome P450 3A4 [13]): > 20 µM; IC50 (Cytochrome P450 2C9): > 20 µM; IC50 (Cytochrome P450 2D6): 0.2 µM; Activity (RBCs): Non-Toxic; fraction unbound [14]: < 0.01 |
| O=C(Nc1nc2ccc(C(F)(F)F)cc2s1)C1CCC2(CC1)CC2 | – | > 64 µg/mL | > 64 µg/mL | > 64 µg/mL | 8 µg/mL (≈ 22.6 µM) | 16 µg/mL (≈ 45.1 µM) | 16 µg/mL (≈ 45.1 µM) | 64 µg/mL (≈ 181 µM) | 4 µg/mL (≈ 11.3 µM) | 8 µg/mL (≈ 22.6 µM) | 32 µg/mL (≈ 90.3 µM) | 32 µg/mL (≈ 90.3 µM) | – |
| O=C(Nc1nc2ccc(OC(F)(F)F)cc2s1)C1CCCCC1 | > 64 µg/mL | > 64 µg/mL | > 64 µg/mL | > 64 µg/mL | > 64 µg/mL | 16 µg/mL (≈ 46.5 µM) | > 64 µg/mL | > 64 µg/mL | > 64 µg/mL | > 64 µg/mL | 64 µg/mL (≈ 186 µM) | 32 µg/mL (≈ 92.9 µM) | – |
| CC1CC(C(=O)Nc2nc3ccc(OC(F)(F)F)cc3s2)CC(C)(C)C1 (stereo not drawn) | 0.25 µg/mL (≈ 0.647 µM) | 1 µg/mL (≈ 2.59 µM) | 0.25 µg/mL (≈ 0.647 µM) | > 64 µg/mL | 0.5 µg/mL (≈ 1.29 µM) | 0.25 µg/mL (≈ 0.647 µM) | 0.25 µg/mL (≈ 0.647 µM) | > 64 µg/mL | 0.12 µg/mL (≈ 0.311 µM) | 0.25 µg/mL (≈ 0.647 µM) | – | – | solubility [11]: Insoluble; IC50 (Cytochrome P450 2C8): > 20 µM; IC50 (HepG2): > 100 µM; IC50 (Cytochrome P450 3A4 [12]): > 20 µM; IC50 (Cytochrome P450 2B6): > 20 µM; IC50 (Cytochrome P450 2C19): > 20 µM; IC50 (Cytochrome P450 3A4 [13]): > 20 µM; IC50 (Cytochrome P450 2C9): > 20 µM; IC50 (Cytochrome P450 2D6): > 20 µM; Activity (RBCs): Non-Toxic; fraction unbound [14]: < 0.01 |
| CC1CC(C(=O)Nc2nc3c(Cl)cccc3s2)CC(C)(C)C1 (stereo not drawn) | – | 4 µg/mL (≈ 11.9 µM) | 1 µg/mL (≈ 2.97 µM) | 16 µg/mL (≈ 47.5 µM) | 2 µg/mL (≈ 5.94 µM) | 2 µg/mL (≈ 5.94 µM) | 4 µg/mL (≈ 11.9 µM) | > 64 µg/mL | 2 µg/mL (≈ 5.94 µM) | 1 µg/mL (≈ 2.97 µM) | – | 16 µg/mL (≈ 47.5 µM) | – |
| CC1CC(C(=O)Nc2nc3cc(Br)ccc3s2)CC(C)(C)C1 (stereo not drawn) | 16 µg/mL (≈ 42 µM) | 16 µg/mL (≈ 42 µM) | 4 µg/mL (≈ 10.5 µM) | > 64 µg/mL | 32 µg/mL (≈ 83.9 µM) | 16 µg/mL (≈ 42 µM) | 16 µg/mL (≈ 42 µM) | > 64 µg/mL | 16 µg/mL (≈ 42 µM) | 64 µg/mL (≈ 168 µM) | – | 32 µg/mL (≈ 83.9 µM) | – |
